6 molecules from ChEMBL document CHEMBL5331074, “Design and synthesis of new adamantyl derivatives as promising antiproliferative agents” (Eur J Med Chem, 2023) can be followed below.

Data set [1] deals with CCRF-CEM. Nature of the data set: Cytotoxicity against human CCRF-CEM cells assessed as cell growth inhibition. The data set is classed as functional, cell-based.
In data set [2] the test system is HL-60(TB). Kind of data set: Cytotoxicity against human HL-60(TB) cells assessed as cell growth inhibition. The data set is classed as functional, cell-based.
Data set [3] has as its system K562. Nature of the data set: Cytotoxicity against human K562 cells assessed as cell growth inhibition. The data set is classed as functional, cell-based.
In data set [4] the test system is MOLT-4. Kind of data set: Cytotoxicity against human MOLT-4 cells assessed as cell growth inhibition. The data set is classed as functional, cell-based.
Data set [5] deals with RPMI-8226. Nature of the data set: Cytotoxicity against human RPMI-8226 cells assessed as cell growth inhibition. The data set is classed as functional, cell-based.
For data set [6], the system named is A549. Kind of data set: Cytotoxicity against human A549 cells assessed as cell growth inhibition. The data set is classed as functional, cell-based.
Data set [7] deals with HOP-62. Nature of the data set: Cytotoxicity against human HOP-62 cells assessed as cell growth inhibition. The data set is classed as functional, cell-based.
Data set [8] concerns HOP-92. Kind of data set: Cytotoxicity against human HOP-92 cells assessed as cell growth inhibition. The data set is classed as functional, cell-based.
Data set [9] has as its system NCI-H226. Nature of the data set: Cytotoxicity against human NCI-H226 cells assessed as cell growth inhibition. The data set is classed as functional, cell-based.
The subject of data set [10] is NCI-H23. Nature of the data set: Cytotoxicity against human NCI-H23 cells assessed as cell growth inhibition. The data set is classed as functional, cell-based.
The subject of data set [11] is NCI-H460. Kind of data set: Cytotoxicity against human NCI-H460 cells assessed as cell growth inhibition. The data set is classed as functional, cell-based.
For data set [12], the system named is NCI-H522. Nature of the data set: Cytotoxicity against human NCI-H522 cells assessed as cell growth inhibition. The data set is classed as functional, cell-based.
The test system of data set [13] is COLO 205. Kind of data set: Cytotoxicity against human COLO 205 cells assessed as cell growth inhibition. The data set is classed as functional, cell-based.
In data set [14] the test system is HCC 2998. Nature of the data set: Cytotoxicity against human HCC 2998 cells assessed as cell growth inhibition. The data set is classed as functional, cell-based.
Data set [15] concerns HCT-116. Nature of the data set: Cytotoxicity against human HCT-116 cells assessed as cell growth inhibition. The data set is classed as functional, cell-based.
Data set [16] deals with HCT-15. Nature of the data set: Cytotoxicity against human HCT-15 cells assessed as cell growth inhibition. The data set is classed as functional, cell-based.
Data set [17] has as its system HT-29. Nature of the data set: Cytotoxicity against human HT-29 cells assessed as cell growth inhibition. The data set is classed as functional, cell-based.
Data set [18] deals with KM12. Kind of data set: Cytotoxicity against human KM12 cells assessed as cell growth inhibition. The data set is classed as functional, cell-based.
The subject of data set [19] is SW-620. Nature of the data set: Cytotoxicity against human SW620 cells assessed as cell growth inhibition. The data set is classed as functional, cell-based.
Data set [20] concerns SF-268. Nature of the data set: Cytotoxicity against human SF-268 cells assessed as cell growth inhibition. The data set is classed as functional, cell-based.
Data set [21] deals with SF-539. Nature of the data set: Cytotoxicity against human SF-539 cells assessed as cell growth inhibition. The data set is classed as functional, cell-based.
Data set [22] relates to SNB-19. Nature of the data set: Cytotoxicity against human SNB-19 cells assessed as cell growth inhibition. The data set is classed as functional, cell-based.
The subject of data set [23] is SNB-75. Nature of the data set: Cytotoxicity against human SNB-75 cells assessed as cell growth inhibition. The data set is classed as functional, cell-based.
Data set [24] concerns U-251. Kind of data set: Cytotoxicity against human U-251 cells assessed as cell growth inhibition. The data set is classed as functional, cell-based.
Data set [25] has as its system Malme-3M. Nature of the data set: Cytotoxicity against human Malme-3M cells assessed as cell growth inhibition. The data set is classed as functional, cell-based.
In data set [26] the test system is M14. Nature of the data set: Cytotoxicity against human M14 cells assessed as cell growth inhibition. The data set is classed as functional, cell-based.
For data set [27], the system named is MDA-MB-435. Kind of data set: Cytotoxicity against human MDA-MB-435 cells assessed as cell growth inhibition. The data set is classed as functional, cell-based.
Data set [28] relates to SK-MEL-2. Nature of the data set: Cytotoxicity against human SK-MEL-2 cells assessed as cell growth inhibition. The data set is classed as functional, cell-based.
Data set [29] deals with SK-MEL-28. Kind of data set: Cytotoxicity against human SK-MEL-28 cells assessed as cell growth inhibition. The data set is classed as functional, cell-based.
Data set [30] deals with SK-MEL-5. Nature of the data set: Cytotoxicity against human SK-MEL-5 cells assessed as cell growth inhibition. The data set is classed as functional, cell-based.
Data set [31] relates to UACC-257. Nature of the data set: Cytotoxicity against human UACC-257 cells assessed as cell growth inhibition. The data set is classed as functional, cell-based.
Data set [32] has as its system UACC-62. Nature of the data set: Cytotoxicity against human UACC-62 cells assessed as cell growth inhibition. The data set is classed as functional, cell-based.
Data set [33] deals with IGROV-1. Nature of the data set: Cytotoxicity against human IGROV-1 cells assessed as cell growth inhibition. The data set is classed as functional, cell-based.
Data set [34] concerns OVCAR-3. Kind of data set: Cytotoxicity against human OVCAR-3 cells assessed as cell growth inhibition. The data set is classed as functional, cell-based.
Data set [35] relates to OVCAR-4. Kind of data set: Cytotoxicity against human OVCAR-4 cells assessed as cell growth inhibition. The data set is classed as functional, cell-based.
For data set [36], the system named is OVCAR-5. Nature of the data set: Cytotoxicity against human OVCAR-5 cells assessed as cell growth inhibition. The data set is classed as functional, cell-based.
Data set [37] concerns OVCAR-8. Kind of data set: Cytotoxicity against human OVCAR-8 cells assessed as cell growth inhibition. The data set is classed as functional, cell-based.
Data set [38] relates to NCI/ADR-RES. Nature of the data set: Cytotoxicity against human NCI/ADR-RES cells assessed as cell growth inhibition. The data set is classed as functional, cell-based.
In data set [39] the test system is SK-OV-3. Nature of the data set: Cytotoxicity against human SK-OV-3 cells assessed as cell growth inhibition. The data set is classed as functional, cell-based.
Data set [40] relates to 786-0. Nature of the data set: Cytotoxicity against human 786-0 cells assessed as cell growth inhibition. The data set is classed as functional, cell-based.
For data set [41], the system named is A498. Nature of the data set: Cytotoxicity against human A498 cells assessed as cell growth inhibition. The data set is classed as functional, cell-based.
Data set [42] concerns ACHN. Kind of data set: Cytotoxicity against human ACHN cells assessed as cell growth inhibition. The data set is classed as functional, cell-based.
Data set [43] has as its system CAKI-1. Nature of the data set: Cytotoxicity against human CAKI-1 cells assessed as cell growth inhibition. The data set is classed as functional, cell-based.
Data set [44] concerns RXF 393. Nature of the data set: Cytotoxicity against human RXF 393 cells assessed as cell growth inhibition. The data set is classed as functional, cell-based.
The test system of data set [45] is SN12C. Kind of data set: Cytotoxicity against human SN12C cells assessed as cell growth inhibition. The data set is classed as functional, cell-based.
For data set [46], the system named is TK-10. Kind of data set: Cytotoxicity against human TK-10 cells assessed as cell growth inhibition. The data set is classed as functional, cell-based.
The subject of data set [47] is UO-31. Kind of data set: Cytotoxicity against human UO-31 cells assessed as cell growth inhibition. The data set is classed as functional, cell-based.
Data set [48] relates to PC-3. Nature of the data set: Cytotoxicity against human PC-3 cells assessed as cell growth inhibition. The data set is classed as functional, cell-based.
For data set [49], the system named is DU-145. Kind of data set: Cytotoxicity against human DU-145 cells assessed as cell growth inhibition. The data set is classed as functional, cell-based.
The subject of data set [50] is MCF7. Nature of the data set: Cytotoxicity against human MCF7 cells assessed as cell growth inhibition. The data set is classed as functional, cell-based.
For data set [51], the system named is MDA-MB-231. Nature of the data set: Cytotoxicity against human MDA-MB-231 cells assessed as cell growth inhibition. The data set is classed as functional, cell-based.
Data set [52] concerns Hs-578T. Nature of the data set: Cytotoxicity against human Hs-578T cells assessed as cell growth inhibition. The data set is classed as functional, cell-based.
The test system of data set [53] is BT-549. Kind of data set: Cytotoxicity against human BT-549 cells assessed as cell growth inhibition. The data set is classed as functional, cell-based.
Data set [54] relates to T47D. Kind of data set: Cytotoxicity against human T47D cells assessed as cell growth inhibition. The data set is classed as functional, cell-based.
In data set [55] the test system is HT-29. Kind of data set: Antiproliferative activity against human HT-29 cells assessed as reduction in cell viability. The data set is classed as functional, cell-based.
Data set [56] relates to Panel NCI-60 (60 carcinoma cell lines). Kind of data set: Cytotoxicity against human Panel NCI-60 (60 carcinoma cell lines) assessed as mean growth inhibition. The data set is classed as functional.
Data set [57] is described as follows: Cytotoxicity against human hTERT-HME1 cells assessed as cell growth inhibition. The data set is classed as toxicity, cell-based.
Data set [58] is described as follows: Cytotoxicity against human F180 cells assessed as cell growth inhibition. The data set is classed as toxicity, cell-based.

Take `O=c1[nH]cc(F)c(=O)[nH]1` [FLUOROURACIL]: the IC50 (usually the concentration that inhibits the measured activity by half) in [1] was 9.97 µM; in data set [2], 2.3 µM; in [3], 3.58 µM; in data set [4] it was 0.35 µM; in [5], 0.04 µM; in [6], 0.18 µM. The IC50 worked out at 0.39 µM in data set [7]; 77.9 µM in data set [8]; 54.7 µM in [9]; 0.33 µM in data set [10]; 0.05 µM in data set [11]; 7.27 µM in data set [12]. For the same molecule, the IC50 in data set [13] was 0.15 µM; in data set [14], 0.05 µM; in data set [15] it was 0.22 µM; in data set [16], 0.11 µM; in data set [17], 0.17 µM; in [18], 0.21 µM. In addition, the IC50 in data set [19] was found to be 0.92 µM; in data set [20], 1.62 µM; in data set [21], 0.06 µM; in [22] it was 3.81 µM; in data set [23], 78.7 µM; in data set [24], 0.92 µM. Moreover, the IC50 in [25] came to 0.05 µM; in data set [26], 0.98 µM; in data set [27] it was 0.07 µM; in data set [28], 56.7 µM; in data set [29], 1.03 µM; in [30] it was 0.46 µM. The IC50 in data set [31] is 3.55 µM; in data set [32] it was 0.52 µM; in data set [33] it was 1.22 µM; in data set [34] it was 0.01 µM; in [35], 4.43 µM; in data set [36], 10.9 µM. The IC50 in data set [37] was 1.74 µM; in [38], 0.31 µM; in data set [39], 21.8 µM; in data set [40] it was 0.72 µM; in data set [41] it was 0.35 µM; in data set [42], 0.27 µM. Besides, the IC50 in data set [43] was 0.07 µM; in data set [44] it was 2.61 µM; in [45] it was 0.49 µM; in [46], 1.12 µM; in data set [47] it was 1.42 µM; in data set [48], 2.36 µM. For the same molecule, the IC50 in [49] was 0.36 µM; in data set [50], 0.07 µM; in data set [51], 6.6 µM; in data set [52], 9.77 µM; in data set [53], 10.6 µM; in [54] it was 8.12 µM.
Regarding `O=C(Nc1ccc(OS(=O)(=O)c2ccc(F)cc2)cc1)C1CCCCC1`, the IC50 in [55] came to 4.73 µM.
Take `O=C(Nc1ccc(NS(=O)(=O)c2ccccc2)cc1)C12CC3CC(CC(C3)C1)C2`: the “inhibition (INH)” value in [56] is listed as 97.88%.
Regarding `O=C(n1ccc2cc(OS(=O)(=O)c3ccccc3)ccc21)C12CC3CC(CC(C3)C1)C2`, the “inhibition (INH)” value in data set [56] came to 88%.
For `O=C(n1ccc2cc(OS(=O)(=O)c3ccc(F)cc3)ccc21)C12CC3CC(CC(C3)C1)C2`, the “inhibition (INH)” value in [56] was 86%.
With `COc1cccc2c1C(=O)c1c(O)c3c(c(O)c1C2=O)C[C@@](O)(C(=O)CO)C[C@@H]3O[C@H]1C[C@H](N)[C@H](O)[C@H](C)O1` [DOXORUBICIN], the IC50 in data set [57] came out at 0.77 µM; in data set [58], 0.14 µM.
